Assay results published in PubChem BioAssay AID1259411 (Chemical Carcinogenesis Research Information System (CCRIS), 2018).
Active and inactive are the calls of the source. No rule for the calls is given here. Where a SMILES comes first, the peptide text is derived from it.

System: rodent carcinogenicity bioassays, tumor incidence
Assay: CCRIS carcinogenicity studies
Method in brief: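 NCI-built, expert-reviewed records of carcinogenicity and related test outcomes (mutagenicity, tumor promotion/inhibition) compiled from published and report sources, historical span 1985-2011, not updated.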

Question: Which results are given for `COC(=O)C1=C(C)NC(C)=C(C(=O)OCCc2ccc(N3CCN(C(c4ccccc4)c4ccccc4)CC3)cc2)C1c1cccc([N+](=O)[O-])c1` (stereo unspecified)?
Answer: carcinogen call (Species: MOUSE, Strain/Sex: B6C3F1/FEMALE, Route: ORAL, Dose: 0, 30, 90, 300 PPM IN DIET FOR 18 MO (STUDY DURATION: 18 MO), Dose: 0, 30, 90, 300 PPM IN DIET FOR 18 MO (STUDY DURATION: 18 MO)): inactive; negative; carcinogen call (Species: MOUSE, Strain/Sex: B6C3F1/MALE, Route: ORAL, Dose: 0, 30, 90, 300 PPM IN DIET FOR 18 MO (STUDY DURATION: 18 MO), Dose: 0, 30, 90, 300 PPM IN DIET FOR 18 MO (STUDY DURATION: 18 MO)): inactive; negative; carcinogen call (Species: RAT, Strain/Sex: F344/FEMALE, Route: ORAL, Dose: 0, 30, 90, 300 PPM IN DIET FOR 24 MO (STUDY DURATION: 24 MO), Dose: 0, 30, 90, 300 PPM IN DIET FOR 24 MO (STUDY DURATION: 24 MO)): inactive; negative; carcinogen call (Species: RAT, Strain/Sex: F344/MALE, Route: ORAL, Dose: 0, 30, 90, 300 PPM IN DIET FOR 24 MO (STUDY DURATION: 24 MO), Dose: 0, 30, 90, 300 PPM IN DIET FOR 24 MO (STUDY DURATION: 24 MO)): inactive; negative

Question: How did the carcinogen call (Species: MOUSE, Strain/Sex: B6C3F1/FEMALE, Route: GAVAGE, Dose: 0, 62, 125 MG/KG IN WATER 5 D/WK FOR 103 WK (STUDY DURATION: 106 WK), Dose: 0, 62, 125 MG/KG IN WATER 5 D/WK FOR 103 WK (STUDY DURATION: 106 WK), Tumor Site: Type of Lesion: FORESTOMACH: SQUAMOUS CELL PAPILLOMA, ANTERIOR PITUTARY GLAND: ADENOMA, HARDERIAN GLAND: ADENOMA, ADENOMA OR CARCINOMA, Tumor Site: Type of Lesion: FORESTOMACH: SQUAMOUS CELL PAPILLOMA, ANTERIOR PITUTARY GLAND: ADENOMA, HARDERIAN GLAND: ADENOMA, ADENOMA OR CARCINOMA) turn out when `CC(I)C1OCC(CO)O1` (stereo unspecified) was run?
Answer: active; positive

Question: What about the carcinogen call (Species: MOUSE, Strain/Sex: B6C3F1/MALE, Route: GAVAGE, Dose: 0, 125, 250 MG/KG IN WATER 5 D/WK FOR 103 WK (STUDY DURATION: 106 WK), Dose: 0, 125, 250 MG/KG IN WATER 5 D/WK FOR 103 WK (STUDY DURATION: 106 WK)) of the same molecule?
Answer: inactive; negative

Question: What about the carcinogen call (Species: RAT, Strain/Sex: F344/FEMALE, Route: GAVAGE, Dose: 0, 62, 125 MG/KG IN WATER 5 D/WK FOR 103 WK (STUDY DURATION: 105 WK), Dose: 0, 62, 125 MG/KG IN WATER 5 D/WK FOR 103 WK (STUDY DURATION: 105 WK)) of the same molecule?
Answer: inactive; negative

Question: And the carcinogen call (Species: RAT, Strain/Sex: F344/MALE, Route: GAVAGE, Dose: 0, 125, 250 MG/KG IN WATER 5 D/WK FOR 103 WK (STUDY DURATION: 105 WK), Dose: 0, 125, 250 MG/KG IN WATER 5 D/WK FOR 103 WK (STUDY DURATION: 105 WK), Tumor Site: Type of Lesion: HEMATOPOIETIC SYSTEM: MONONUCLEAR CELL LEUKEMIA, THYROID GLAND: FOLLICULAR CELL CARCINOMA)?
Answer: active; positive

Question: `ClC(Cl)(Cl)C(Cl)(Cl)Cl` was tested. Which carcinogen call (Species: MOUSE, Strain/Sex: B6C3F1/FEMALE, Route: GAVAGE, Dose: 0, 590, 1179 MG/KG, TWA, Dose: 0, 590, 1179 MG/KG, TWA, Tumor Site: Type of Lesion: LIVER: HEPATOCELLULAR CARCINOMA) did it give?
Answer: active; positive

Question: What about the carcinogen call (Species: MOUSE, Strain/Sex: B6C3F1/MALE, Route: GAVAGE, Dose: 0, 590, 1179 MG/KG, TWA, Dose: 0, 590, 1179 MG/KG, TWA, Tumor Site: Type of Lesion: LIVER: HEPATOCELLULAR CARCINOMA) of the same molecule?
Answer: active; positive

Question: And the carcinogen call (Species: RAT, Strain/Sex: F344/F, Route: GAVAGE, Dose: 0, 80, 160 MG/KG IN CORN OIL 5D/WK FOR 103 WK (STUDY DURATION: 105 WK), Dose: 0, 80, 160 MG/KG IN CORN OIL 5D/WK FOR 103 WK (STUDY DURATION: 105 WK))?
Answer: inactive; negative

Question: What about the carcinogen call (Species: RAT, Strain/Sex: F344/M, Route: GAVAGE, Dose: 0, 10, 20 MG/KG IN CORN OIL 5D/WK FOR 103 WK (STUDY DURATION: 105 WK), Dose: 0, 10, 20 MG/KG IN CORN OIL 5D/WK FOR 103 WK (STUDY DURATION: 105 WK), Tumor Site: Type of Lesion: ADRENAL MEDULLA: PHEOCHROMOCYTOMA, ADRENAL MEDULLA: PHEOCHROMOCYTOMA, BENIGN, COMPLEX OR MALIGNANT, KIDNEY: RENAL TUBULE, Tumor Site: Type of Lesion: ADRENAL MEDULLA: PHEOCHROMOCYTOMA, ADRENAL MEDULLA: PHEOCHROMOCYTOMA, BENIGN, COMPLEX OR MALIGNANT, KIDNEY: RENAL TUBULE) of the same molecule?
Answer: active; positive

Question: And the carcinogen call (Species: RAT, Strain/Sex: OSBORNE-MENDEL/FEMALE, Route: GAVAGE, Dose: 0, 212, 423 MG/KG, TWA FOR 44 WK, Dose: 0, 212, 423 MG/KG, TWA FOR 44 WK)?
Answer: inactive; negative

Question: And the carcinogen call (Species: RAT, Strain/Sex: OSBORNE-MENDEL/MALE, Route: GAVAGE, Dose: 0, 212, 423 MG/KG, TWA FOR 44 WK, Dose: 0, 212, 423 MG/KG, TWA FOR 44 WK)?
Answer: inactive; negative

Question: `CC(N)=S` was tested. Which carcinogen call (Species: MOUSE, Strain/Sex: SWISS, Route: ORAL, Dose: 0.03% IN DIET, Tumor Site: Type of Lesion: LIVER: CARCINOMA) did it give?
Answer: active; positive

Question: And the carcinogen call (Species: RAT, Strain/Sex: WISTAR/MALE,FEMALE, Route: ORAL, Dose: 0.032% IN DIET, Tumor Site: Type of Lesion: LIVER: BILE DUCT TUMOR, NOS)?
Answer: active; positive

Question: Which results are given for `COC(=O)[C@H](Cc1ccccc1)NC(=O)[C@@H](N)CC(=O)O` (H-Asp-Phe-OMe)?
Answer: carcinogen call (Species: MOUSE, Strain/Sex: SWISS/FEMALE, Route: INTRAVESICULAR, Dose: 0, 4-4.4 MG IN CHOLESTEROL PELLET (STUDY DURATION: 26 WK)): inactive; negative; carcinogen call (Species: MOUSE, Strain/Sex: SWISS/FEMALE, Route: INTRAVESICULAR, Dose: 0, 4-4.4 MG IN CHOLESTEROL PELLET (STUDY DURATION: 56 WK)): inactive; negative

Question: What does the source list for `O=c1ccc(O)n[nH]1`?
Answer: carcinogen call (Species: Mouse, Strain/Sex: Charles River CD-1/Female (50/Group), Route: Oral, Dose: 0, 189, 598, 1811 mg/kg/day of 90% maleic hydrazide potassium salt in diet for 98 wk, study duration 98 wk, Dose: 0, 189, 598, 1811 mg/kg/day of 90% maleic hydrazide potassium salt in diet for 98 wk, study duration 98 wk): inactive; negative; carcinogen call (Species: Mouse, Strain/Sex: Charles River CD-1/Male (50/Group), Route: Oral, Dose: 0, 157, 509, 1545 mg/kg/day of 90% maleic hydrazide potassium salt in diet for 98 wk, study duration 98 wk, Dose: 0, 157, 509, 1545 mg/kg/day of 90% maleic hydrazide potassium salt in diet for 98 wk, study duration 98 wk): inactive; negative; carcinogen call (Species: Rat, Strain/Sex: Sprague-Dawley/Female (50/Group), Route: Oral, Dose: 0, 25, 500, 1000 mg/kg/day of 72.5-73.8% as maleic hydrazide in diet for 104 wk, study duration 104 wk, Dose: 0, 25, 500, 1000 mg/kg/day of 72.5-73.8% as maleic hydrazide in diet for 104 wk, study duration 104 wk): inactive; negative; carcinogen call (Species: Rat, Strain/Sex: Sprague-Dawley/Male (50/Group), Route: Oral, Dose: 0, 25, 500, 1000 mg/kg/day of 72.5-73.8% as maleic hydrazide in diet for 104 wk, study duration 104 wk, Dose: 0, 25, 500, 1000 mg/kg/day of 72.5-73.8% as maleic hydrazide in diet for 104 wk, study duration 104 wk): inactive; negative

Question: Which results are given for `O=[N+]([O-])c1cc2ccc3cccc4ccc(c1)c2c34`?
Answer: carcinogen call (Species: RAT, Strain/Sex: STRAIN-CD/FEMALE, Route: INJECTION, Dose: 0, 0.1 ML IN 20.3 UMOL/ML DMSO INJECTED INTO MAMMARY TISSUE OF THE 3 LEFT THORACIC NIPPLES FOLLOWED THE NEXT D BY SIMILA): inactive; negative; carcinogen call (Species: RAT, Strain/Sex: STRAIN-CD/FEMALE, Route: INJECTION, Dose: 0, 0.1 ML OF A 20.3 UMOL/ML SOLUTION IN DMSO INJECTED INTO MAMMARY TISSUE UNDERLYING 3 LEFT THORACIC NIPPLES THE FOLLOWI): inactive; negative; carcinogen call (Species: RAT, Strain/Sex: STRAIN-CD/FEMALE, Route: INTRAPERITONEAL, Dose: 0, 67 UMOL/KG BW IN DMSO 3/WK FOR 4 WK (STUDY DURATION: 61 WK), Tumor Site: Type of Lesion: HEMATOPOIETIC SYSTEM: LEUKEMIA, LYMPHOMA): active; positive; carcinogen call (Species: RAT, Strain/Sex: STRAIN-CD/FEMALE, Route: INTRAPERITONEAL, Dose: 0, 67 UMOL/KG/BW IN 25 UMOL/ML DMSO 3/WK FOR 4 WK (TOTAL DOSE: 0; 119 UMOL) ADMINISTERED TO WEANLING RATS (STUDY DURATIO, Dose: 0, 67 UMOL/KG/BW IN 25 UMOL/ML DMSO 3/WK FOR 4 WK (TOTAL DOSE: 0; 119 UMOL) ADMINISTERED TO WEANLING RATS (STUDY DURATIO, Tumor Site: Type of Lesion: HEMATOPOIETIC SYSTEM: LEUKEMIA OR LYMPHOMA): active; positive
